Measured values published in PubChem BioAssay AID1845195 (Molecular Pharmacology Branch, DTP, NCI, 2023).
Values joined by “and” are separate entries in the source; they are usually repeats but may differ in a detail not shown here. Equal values may be shown once.

Tested on: 156681-154-R-J1 tumor spheroid viability
Test: Anticancer human tumor 156681-154-R-J1 patient-derived melanoma cell line growth inhibition
Details: spheroids with HUVEC and MSC; for viability, T/C: stronger effect = lower value
How it was run: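 Single agents and combinations were tested on spheroids built from tumor cells plus HUVEC and hMSC, at half-log dilutions starting at or near clinical Cmax, else 10 microM; final DMSO 0.25% (v/v).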
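Also: spheroids exposed to compounds for 7 days before readout.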
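For viability, T/C in this document: percent of vehicle control viability where 100% = DMSO-treated spheroids.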

## CC1COCCN1c1cc(-c2ccnn2C)c2ccnc(-c3ccn[nH]3)c2n1 (centres undefined) + COc1cc2c(cc1O)CCNC21CSC2c3c(OC(C)=O)c(C)c4c(c3C(COC1=O)N1C(O)C3Cc5cc(C)c(OC)c(O)c5C(C21)N3C)OCO4
Curve of first compound, second compound 30 pM
  IC50: 0.19 µM
Curve of first compound, second compound 94.9 pM
  IC50: 0.104 µM
Curve of first compound, second compound 0.0003 µM
  IC50: < 0.0316 µM
Curve of first compound, second compound 0.000949 µM
  IC50: < 0.0316 µM
Curve of first compound, second compound 0.003 µM
  IC50: < 0.0316 µM
Second compound 30 pM, first compound 0.0316 µM
  viability, T/C: 96.4%
Second compound 30 pM, first compound 0.1 µM
  viability, T/C: 62.2%
Second compound 30 pM, first compound 0.316 µM
  viability, T/C: 39.9%
Second compound 30 pM, first compound 1 µM
  viability, T/C: 29.9%
Second compound 30 pM, first compound 3.16 µM
  viability, T/C: 27.3%
Second compound 30 pM, first compound 10 µM
  viability, T/C: 22.6%
Second compound 94.9 pM, first compound 0.0316 µM
  viability, T/C: 78.7%
Second compound 94.9 pM, first compound 0.1 µM
  viability, T/C: 50.7%
Second compound 94.9 pM, first compound 0.316 µM
  viability, T/C: 33.6%
Second compound 94.9 pM, first compound 1 µM
  viability, T/C: 30%
Second compound 94.9 pM, first compound 3.16 µM
  viability, T/C: 22.1%
Second compound 94.9 pM, first compound 10 µM
  viability, T/C: 21.9%
Second compound 0.0003 µM, first compound 0.0316 µM
  viability, T/C: 49.5%
Second compound 0.0003 µM, first compound 0.1 µM
  viability, T/C: 41.1%
Second compound 0.0003 µM, first compound 0.316 µM
  viability, T/C: 23.9%
Second compound 0.0003 µM, first compound 1 µM
  viability, T/C: 20.6%
Second compound 0.0003 µM, first compound 3.16 µM
  viability, T/C: 21.3%
Second compound 0.0003 µM, first compound 10 µM
  viability, T/C: 20.1%
Second compound 0.000949 µM, first compound 0.0316 µM
  viability, T/C: 6.51%
Second compound 0.000949 µM, first compound 0.1 µM
  viability, T/C: 2.7%
Second compound 0.000949 µM, first compound 0.316 µM
  viability, T/C: 4.04%
Second compound 0.000949 µM, first compound 1 µM
  viability, T/C: 3.29%
Second compound 0.000949 µM, first compound 3.16 µM
  viability, T/C: 0.29%
Second compound 0.000949 µM, first compound 10 µM
  viability, T/C: 0.17%
Second compound 0.003 µM, first compound 0.0316 µM
  viability, T/C: 0.23%
Second compound 0.003 µM, first compound 0.1 µM
  viability, T/C: 0.22%
Second compound 0.003 µM, first compound 0.316 µM
  viability, T/C: 0.16%
Second compound 0.003 µM, first compound 1 µM
  viability, T/C: 0.13%
Second compound 0.003 µM, first compound 3.16 µM
  viability, T/C: 0.14%
Second compound 0.003 µM, first compound 10 µM
  viability, T/C: 0.25%

## CC(C)n1c(=O)n(C)c2cnc3cc(F)c(-c4ccc(OCCCN5CCCCC5)nc4)cc3c21
Compound 0.0316 µM
  viability, T/C: 106% and 92.3% and 88.9%
Compound 0.1 µM
  viability, T/C: 101% (2×) and 102%
Compound 0.316 µM
  viability, T/C: 97.7% and 98.2% and 112%
Compound 1 µM
  viability, T/C: 100% and 106% and 96.7%
Compound 3.16 µM
  viability, T/C: 98.3% and 109% (2×)
Compound 10 µM
  viability, T/C: 78.9% and 100% and 96.5%
Curve of compound
  IC50: > 10 µM

## COc1cc(C)[nH]c(=O)c1CN1CCc2c(Cl)cc(C(OC)C3COC3)c(Cl)c2C1=O (centres undefined)
Compound 0.0316 µM
  viability, T/C: 84.3% and 79.3% and 103%
Compound 0.1 µM
  viability, T/C: 96.4% and 99.4% and 110%
Compound 0.316 µM
  viability, T/C: 99% and 102% and 105%
Compound 1 µM
  viability, T/C: 91.7% and 88.1% and 112%
Compound 3.16 µM
  viability, T/C: 86% and 95.8% and 122%
Compound 10 µM
  viability, T/C: 107% and 93% and 118%
Curve of compound
  IC50: > 10 µM

## O=C(c1cc(Cc2n[nH]c(=O)c3ccccc23)ccc1F)N1CCN(C(=O)C2CC2)CC1 + Cn1nnc2c(C(N)=O)ncn2c1=O
Curve of first compound, second compound 1 µM
  IC50: > 30 µM
Curve of first compound, second compound 3.16 µM
  IC50: 18.2 µM
Curve of first compound, second compound 10 µM
  IC50: 14.7 µM
Curve of first compound, second compound 31.6 µM
  IC50: 1.2 µM
Curve of first compound, second compound 100 µM
  IC50: < 0.0949 µM
Second compound 1 µM, first compound 0.0949 µM
  viability, T/C: 92.1%
Second compound 1 µM, first compound 0.3 µM
  viability, T/C: 74.6%
Second compound 1 µM, first compound 0.949 µM
  viability, T/C: 97.5%
Second compound 1 µM, first compound 3 µM
  viability, T/C: 80.2%
Second compound 1 µM, first compound 9.49 µM
  viability, T/C: 66.5%
Second compound 1 µM, first compound 30 µM
  viability, T/C: 50.3%
Second compound 3.16 µM, first compound 0.0949 µM
  viability, T/C: 81.1%
Second compound 3.16 µM, first compound 0.3 µM
  viability, T/C: 86.4%
Second compound 3.16 µM, first compound 0.949 µM
  viability, T/C: 78.3%
Second compound 3.16 µM, first compound 3 µM
  viability, T/C: 74.2%
Second compound 3.16 µM, first compound 9.49 µM
  viability, T/C: 52.1%
Second compound 3.16 µM, first compound 30 µM
  viability, T/C: 48.3%
Second compound 10 µM, first compound 0.0949 µM
  viability, T/C: 85.2%
Second compound 10 µM, first compound 0.3 µM
  viability, T/C: 81.3%
Second compound 10 µM, first compound 0.949 µM
  viability, T/C: 70.5%
Second compound 10 µM, first compound 3 µM
  viability, T/C: 68.5%
Second compound 10 µM, first compound 9.49 µM
  viability, T/C: 55.6%
Second compound 10 µM, first compound 30 µM
  viability, T/C: 40.9%
Second compound 31.6 µM, first compound 0.0949 µM
  viability, T/C: 69%
Second compound 31.6 µM, first compound 0.3 µM
  viability, T/C: 63.3%
Second compound 31.6 µM, first compound 0.949 µM
  viability, T/C: 48.4%
Second compound 31.6 µM, first compound 3 µM
  viability, T/C: 44.5%
Second compound 31.6 µM, first compound 9.49 µM
  viability, T/C: 35.6%
Second compound 31.6 µM, first compound 30 µM
  viability, T/C: 27.4%
Second compound 100 µM, first compound 0.0949 µM
  viability, T/C: 36.8%
Second compound 100 µM, first compound 0.3 µM
  viability, T/C: 34.4%
Second compound 100 µM, first compound 0.949 µM
  viability, T/C: 27.4%
Second compound 100 µM, first compound 3 µM
  viability, T/C: 22.6%
Second compound 100 µM, first compound 9.49 µM
  viability, T/C: 15.1%
Second compound 100 µM, first compound 30 µM
  viability, T/C: 21.6%
